The values below come from paper PMC3296825 (Nature medicine, 2012).

Usually Kd stands for the equilibrium constant for the complex coming apart. A low value points to tighter binding.

Molecules are shown by their SMILES.

Assay [1] has as its target fast skeletal troponin complex (Oryctolagus cuniculus, UniProt P02586+P02643). In words: isothermal titration calorimetry. In kind it is binding. On the technique in general: ITC needs no label: the signal is the heat of the interaction.
Another assay has as its target slow skeletal troponin (Bos taurus, UniProt G3MYN5+P63315). In words: isothermal titration calorimetry. In kind it is binding.

fast skeletal troponin complex, sequence (P02586 2-160): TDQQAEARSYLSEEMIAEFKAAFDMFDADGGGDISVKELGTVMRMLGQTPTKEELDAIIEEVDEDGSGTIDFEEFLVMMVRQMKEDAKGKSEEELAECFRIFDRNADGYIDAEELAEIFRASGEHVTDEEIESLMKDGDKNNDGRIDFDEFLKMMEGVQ
fast skeletal troponin complex, sequence (P02643 2-182): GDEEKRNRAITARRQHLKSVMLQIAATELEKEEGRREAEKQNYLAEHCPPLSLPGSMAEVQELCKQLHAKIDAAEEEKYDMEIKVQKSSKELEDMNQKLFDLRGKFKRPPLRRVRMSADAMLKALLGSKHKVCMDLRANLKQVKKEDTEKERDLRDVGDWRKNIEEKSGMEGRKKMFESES
fast skeletal troponin complex, sequence (P02641 2-279 partner): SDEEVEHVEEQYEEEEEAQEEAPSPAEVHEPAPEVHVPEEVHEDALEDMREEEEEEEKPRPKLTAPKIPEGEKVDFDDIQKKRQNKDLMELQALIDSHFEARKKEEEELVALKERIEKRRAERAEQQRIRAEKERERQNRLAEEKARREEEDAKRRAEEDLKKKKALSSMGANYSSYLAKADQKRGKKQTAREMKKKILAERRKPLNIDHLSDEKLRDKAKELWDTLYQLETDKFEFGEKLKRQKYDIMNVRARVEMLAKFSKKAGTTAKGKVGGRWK

Regarding `C#Cc1cnc2nc(O)n(C(CC)CC)c2n1` [CK-2017357], the Kd in assay [1] turned out to be 40 ± 6 nM; on slow skeletal troponin, 3800 ± 700 nM.
